Results from US12655116B2, “Substituted isophthalic acid diamides” (Bayer Aktiengesellschaft, priority 2020, dated 2026).

What was measured:
ALOMY [1] = assay: Pre-emergence herbicidal action against ALOMY; assay type: in vivo, Alopecurus myosuroides; settings: Alopecurus myosuroides, 504 h; 80 g/ha, pre-emergence, scored visually after 3 weeks vs untreated controls (100% = plants have died, 0% = like control plants)
In short: (§1)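 Herbicidal effect was assessed 3 weeks after treatment by visual comparison with untreated controls, 100% denoting dead plants. Aqueous WP or EC preparations had been applied at 600 to 800 l/ha with 0.2% wetting agent to the soil covering freshly sown seeds.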

MATIN [2] = assay: Pre-emergence herbicidal action against MATIN; assay type: in vivo, Matricaria inodora; settings: for pest or weed control at 20 g/ha / pest or weed control at 80 g/ha: Tripleurospermum inodorum, 504 h
In short: as §1

ABUTH [3] = assay: Pre-emergence herbicidal action against ABUTH; assay type: in vivo, Abutilon theophrasti; settings: for pest or weed control at 80 g/ha: Abutilon theophrasti, 504 h; for pest or weed control at 80 g/ha / Pre-emergence action against ABUTH (herbicidal activity): scored visually after 3 weeks vs untreated controls (100% = plants have died, 0% = like control plants), 80 g/ha
In short: as §1

SETVI [4] = assay: Post-emergence herbicidal action against SETVI; assay type: in vivo, Setaria viridis; settings: Setaria viridis, 504 h; for pest or weed control at 20 g/ha: dosage 20 g/ha
In short: (§2)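 Post-emergence greenhouse test; one-leaf stage, 2–3 wk post-sowing, sandy loam. Foliar spray of WP/EC in water, 600–800 l/ha, +0.2% wetting agent. Visual % action at ~3 wk vs untreated (100% = plants dead).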

AVEFA [5] = assay: Post-emergence herbicidal action against AVEFA; assay type: in vivo, Avena fatua; settings: visual assessment about 3 weeks after treatment, 100% = plants have died, 0% = like control plants
Protocol: Seeds of monocotyledonous and dicotyledonous weed and crop plants are laid out in sandy loam soil in wood-fiber pots, covered with soil and cultivated in a greenhouse under good growth conditions. 2 to 3 weeks after sowing, the test plants are treated at the one-leaf stage. The compounds of the invention, formulated in the form of wettable powders (WP) or as emulsion concentrates (EC), are then sprayed onto the green parts of the plants in the form of an aqueous suspension or emulsion at a water application rate equivalent to 600 to 800 l/ha, with addition of 0.2% wetting agent. After the test plants have been left to stand in the greenhouse under optimal growth conditions for about 3 weeks, the action of the preparations is assessed visually in comparison to untreated controls (herbicidal action in percent (%): 100% activity=the plants have died, 0% activity=like control plants). […] The tables below illustrate, in an illustrative manner, the post-emergence herbicidal action of the compounds of the invention, the herbicidal activity being stated in percent.

ABUTH [6] = assay: Post-emergence herbicidal action against ABUTH; assay type: in vivo, Abutilon theophrasti; settings: dosage 20 g/ha, visual assessment about 3 weeks after treatment vs untreated controls; for pest or weed control at 20 g/ha: Abutilon theophrasti, 504 h
In short: as §2

VIOTR [7] = assay: Pre-emergence herbicidal action against VIOTR; assay type: in vivo, Viola tricolor; settings: for pest or weed control at 20 g/ha / pest or weed control at 80 g/ha: Viola tricolor, 504 h
In short: as §1

AMARE [8] = assay: Pre-emergence herbicidal action against AMARE; assay type: in vivo, Amaranthus retroflexus; settings: for pest or weed control at 20 g/ha / pest or weed control at 80 g/ha: Amaranthus retroflexus, 504 h
In short: as §1

AVEFA [9] = assay: Pre-emergence herbicidal action against AVEFA; assay type: in vivo, Avena fatua; settings: for pest or weed control at 80 g/ha / pest or weed control at 20 g/ha: Avena fatua, 504 h
In short: as §1

ECHCG [10] = assay: Pre-emergence herbicidal action against ECHCG; assay type: in vivo, Echinochloa crus-galli; settings: for pest or weed control at 80 g/ha: Echinochloa crus-galli, 504 h
In short: as §1

SETVI [11] = assay: Pre-emergence herbicidal action against SETVI; assay type: in vivo, Setaria viridis; settings: dosage 80 g/ha; for pest or weed control at 80 g/ha: Setaria viridis, 504 h
In short: as §1

DIGSA = assay: Pre-emergence herbicidal action against DIGSA; assay type: in vivo, Digitaria sanguinalis
In short: as §1

ECHCG [12] = assay: Post-emergence herbicidal action against ECHCG; assay type: in vivo, Echinochloa crus-galli; settings: dosage 20 g/ha
In short: as §2

VERPE [13] = assay: Pre-emergence herbicidal action against VERPE; assay type: in vivo, Veronica persica; settings: dosage 80 g/ha
In short: as §1

MATIN [14] = assay: Post-emergence herbicidal action against MATIN; assay type: in vivo, Matricaria inodora; settings: dosage 20 g/ha
In short: as §2

VIOTR [15] = assay: Post-emergence herbicidal action against VIOTR; assay type: in vivo, Viola tricolor
In short: as §2

AMARE [16] = assay: Post-emergence herbicidal action against AMARE; assay type: in vivo, Amaranthus retroflexus; settings: 20 g/ha, visual assessment about 3 weeks after treatment, 100% = plants have died, 0% = like control plants
In short: as §2

POLCO = assay: Pre-emergence herbicidal action against POLCO; assay type: in vivo, Polygonum convolvulus; settings: dosage 80 g/ha
In short: as §1

VERPE [17] = assay: Post-emergence herbicidal action against VERPE; assay type: in vivo, Veronica persica; settings: 20 g/ha
In short: as §2

STEME = assay: Pre-emergence herbicidal action against STEME; assay type: in vivo, Stellaria media; settings: dosage 80 g/ha
Text: Seeds of monocotyledonous and dicotyledonous weed plants and crop plants are laid out in sandy loam soil in wood-fiber pots and covered with soil. The compounds of the invention, formulated in the form of wettable powders (WP) or as emulsion concentrates (EC), are then applied to the surface of the covering soil in the form of an aqueous suspension or emulsion at a water application rate equivalent to 600 to 800 l/ha, with addition of 0.2% wetting agent. After the treatment, the pots are placed in a greenhouse and kept under good growth conditions for the trial plants. The damage to the test plants is scored visually after a test period of 3 weeks by comparison with untreated controls (herbicidal activity in percent (%): 100% activity=the plants have died, 0% activity=like control plants). […] The tables below illustrate, in an illustrative manner, the post-emergence herbicidal action of the compounds of the invention, the herbicidal activity being stated in percent.

ALOMY [18] = assay: Post-emergence herbicidal action against ALOMY; assay type: in vivo, Alopecurus myosuroides; settings: Alopecurus myosuroides, 504 h, dosage 20 g/ha, visual assessment about 3 weeks after treatment vs untreated controls
In short: as §2

[19] = 20 g/ha, scored visually after 3 weeks vs untreated controls, 100% = plants have died, 0% = like control plants
[20] = 80 g/ha, scored visually after 3 weeks vs untreated controls, 100% = plants have died, 0% = like control plants
[21] = pre-emergence, 20 g/ha, scored visually after 3 weeks, 100% = plants have died, 0% = like control plants
[22] = 80 g/ha, scored visually after 3 weeks vs untreated controls (100% = plants have died, 0% = like control plants)

Compound	pest or weed control at 80 g/ha (ALOMY [1]) [%]	pest or weed control at 20 g/ha (MATIN [2]; dosage 20 g/ha) [%]	pest or weed control at 80 g/ha (MATIN [2]; dosage 80 g/ha) [%]	pest or weed control at 80 g/ha (ABUTH [3]) [%]	pest or weed control at 20 g/ha (SETVI [4]) [%]	pest or weed control at 20 g/ha (AVEFA [5]; Avena fatua, 504 h, 20 g/ha) [%]	pest or weed control at 20 g/ha (ABUTH [6]) [%]	pest or weed control at 20 g/ha (VIOTR [7]; dosage 20 g/ha) [%]	pest or weed control at 80 g/ha (VIOTR [7]; dosage 80 g/ha) [%]	pest or weed control at 20 g/ha (AMARE [8]; [19]) [%]	pest or weed control at 80 g/ha (AMARE [8]; [20]) [%]	pest or weed control at 80 g/ha (AVEFA [9]; 80 g/ha, pre-emergence) [%]	pest or weed control at 20 g/ha (AVEFA [9]; [21]) [%]	pest or weed control at 80 g/ha (ECHCG [10]; 80 g/ha) [%]	pest or weed control at 80 g/ha (SETVI [11]) [%]	Pre-emergence action against MATIN in % (MATIN [2]; dosage 20 g/ha) [%]	Pre-emergence action against MATIN in % (MATIN [2]; dosage 80 g/ha) [%]	Pre-emergence action against ABUTH (herbicidal activity) (ABUTH [3]) [%]	Pre-emergence action against VIOTR in % (VIOTR [7]; dosage 80 g/ha) [%]	Pre-emergence action against AMARE in % (AMARE [8]; [19]) [%]	further results
Cc1c(C(=O)Nc2nnnn2C)ccc(C(F)(F)F)c1C(=O)NCC(F)(F)F [Example 1-29]	100	100	100	100	80	90	80	100	100	100	100	90	80	90	100						pest or weed control at 5 g/ha (AVEFA [5]; Avena fatua, 504 h, 5 g/ha): 80%; pest or weed control at 20 g/ha (DIGSA; Digitaria sanguinalis, 504 h, dosage 20 g/ha): 100%; pest or weed control at 80 g/ha (DIGSA; Digitaria sanguinalis, 504 h, dosage 80 g/ha): 100%; pest or weed control at 20 g/ha (ECHCG [12]; Echinochloa crus-galli, 504 h): 80%
CCn1nnnc1NC(=O)c1ccc(C(F)F)c(C(=O)NCC2CC2)c1SC [Example 2-90]																100	100	100	100	100	Pre-emergence action against ABUTH (herbicidal activity in percent) (ABUTH [3]; dosage 20 g/ha, scored visually after 3 weeks vs untreated controls, 100% = plants have died, 0% = like control plants): 100%; Post-emergence action at 20 g/ha against AVEFA in % (AVEFA [5]; 20 g/ha): 80%; Post-emergence action against ABUTH in % (ABUTH [6]): 90%; Pre-emergence action against VIOTR in % (VIOTR [7]; dosage 20 g/ha): 80%; Pre-emergence action against VERPE in % (VERPE [13]): 90%; Post-emergence action against MATIN in % (MATIN [14]): 90%; Pre-emergence action against AMARE in % (AMARE [8]; [22]): 100%; Pre-emergence action against AVEFA (AVEFA [9]; 20 g/ha, scored visually after 3 weeks, 100% = plants have died, 0% = like control plants): 80%; Pre-emergence action against AVEFA in % (AVEFA [9]; 80 g/ha, pre-emergence): 90%; Pre-emergence action against ECHCG in % (ECHCG [10]; 20 g/ha): 90%; Pre-emergence action against ECHCG in % (ECHCG [10]; 80 g/ha): 100%; Post-emergence action against VIOTR in % (VIOTR [15]; 5 g/ha): 100%; Post-emergence action against VIOTR in % (VIOTR [15]; 20 g/ha): 100%; Post-emergence action at 20 g/ha against AMARE in % (AMARE [16]): 100%; Pre-emergence action against SETVI in % (SETVI [11]): 100%; Post-emergence action against ECHCG in % (ECHCG [12]): 100%
CCn1nnnc1NC(=O)c1ccc(S(C)(=O)=O)c(C(=O)NC)c1Cl [Example 2-123]																80	100	100	80	80	Pre-emergence action against POLCO in % (POLCO): 80%; Pre-emergence action against AMARE in % (AMARE [8]; [22]): 100%; Post-emergence action against VERPE in % (VERPE [17]): 80%; Post-emergence action at 20 g/ha against AMARE in % (AMARE [16]): 80%; Pre-emergence action against STEME in % (STEME): 80%; Pre-emergence action against DIGSA in % (DIGSA; dosage 20 g/ha): 80%; Pre-emergence action against DIGSA in % (DIGSA; dosage 80 g/ha): 90%
CCn1nnnc1NC(=O)c1ccc(Cl)c(C(=O)NC2CC2)c1Br [Example 2-349]	100	90	100	100	100	90	80	90	100	100	100	100	90	90	100						pest or weed control at 20 g/ha (ALOMY [18]): 80%; pest or weed control at 5 g/ha (SETVI [4]; dosage 5 g/ha): 90%; pest or weed control at 80 g/ha (VERPE [13]; Veronica persica, 504 h): 80%; pest or weed control at 20 g/ha (VIOTR [15]; Viola tricolor, 504 h, 20 g/ha): 80%; pest or weed control at 20 g/ha (AMARE [16]; Amaranthus retroflexus, 504 h): 100%
